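1) Cells in 96-well plates. 2) Compound, 48 h, 5 concentrations. 3) Linear interpolation between surrounding doses. 4) Unreached endpoint = highest concentration. At the GI50, growth is halved.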 Active and inactive are the calls of the source. No stated cut-off is given here; in the data, active = GI50 up to about 1.1 µM and inactive = higher. Non-standard residues stand in square brackets, D forms with d. Residues, ends and D or L forms follow the SMILES beside them. *: point of attachment. hSer = N[CH](CCO)C(=O)O; Boc = CC(C)(C)OC(=O)*
How the values were obtained:
Test in all cases: NCI-60 cell line screen, 48 h
CAKI-1 = tested on: CAKI-1
CCRF-CEM = tested on: CCRF-CEM
EKVX = tested on: EKVX
IGROV-1 = tested on: IGROV-1
K562 = tested on: K562
LOX IMVI = tested on: LOX IMVI
MCF7 = tested on: MCF7
MDA-MB-231 = tested on: MDA-MB-231
MDA-N = tested on: MDA-N
NCI-H522 = tested on: NCI-H522
NCI/ADR-RES = tested on: NCI/ADR-RES
OVCAR-4 = tested on: OVCAR-4
OVCAR-5 = tested on: OVCAR-5
PC-3 = tested on: PC-3
RPMI-8226 = tested on: RPMI-8226
SF-539 = tested on: SF-539
SK-MEL-28 = tested on: SK-MEL-28
SK-OV-3 = tested on: SK-OV-3
UACC-257 = tested on: UACC-257

Structure (SMILES)	GI50 (CAKI-1)	GI50 (CCRF-CEM)	GI50 (EKVX)	GI50 (IGROV-1)	GI50 (K562)	GI50 (LOX IMVI)	GI50 (MCF7)	GI50 (MDA-MB-231)	GI50 (MDA-N)	GI50 (NCI-H522)	GI50 (NCI/ADR-RES)	GI50 (OVCAR-4)	GI50 (OVCAR-5)	GI50 (PC-3)	GI50 (RPMI-8226)	GI50 (SF-539)	GI50 (SK-MEL-28)	GI50 (SK-OV-3)	GI50 (UACC-257)
O=C(O)c1ccccc1NCn1c(=S)sc2ccccc21	> 100 µM (inactive)	23.4 µM (inactive)	> 100 µM (inactive)	57.4 µM (inactive)	> 100 µM (inactive)	20 µM (inactive)	22.4 µM (inactive)	51.8 µM (inactive)	> 100 µM (inactive)	27 µM (inactive)	> 100 µM (inactive)	56 µM (inactive)	> 100 µM (inactive)	45.6 µM (inactive)	32.3 µM (inactive)	18.3 µM (inactive)	> 100 µM (inactive)	> 100 µM (inactive)	31.8 µM (inactive)
Cc1nc(N)nc2ccccc12	> 100 µM (inactive)	> 100 µM (inactive)	44.8 µM (inactive)	> 100 µM (inactive)	> 100 µM (inactive)	> 100 µM (inactive)	> 100 µM (inactive)	> 100 µM (inactive)	> 100 µM (inactive)	> 100 µM (inactive)	> 100 µM (inactive)	> 100 µM (inactive)	> 100 µM (inactive)	> 100 µM (inactive)	> 100 µM (inactive)	> 100 µM (inactive)	> 100 µM (inactive)	> 100 µM (inactive)	> 100 µM (inactive)
O=c1s[s+]([O-])c2ccccc12 (stereo unspecified)	> 100 µM (inactive)	61.4 µM (inactive)	> 100 µM (inactive)	> 100 µM (inactive)	45.7 µM (inactive)	58.3 µM (inactive)	> 100 µM (inactive)	> 100 µM (inactive)	> 100 µM (inactive)	39.4 µM (inactive)	> 100 µM (inactive)	> 100 µM (inactive)	> 100 µM (inactive)	> 100 µM (inactive)	62.1 µM (inactive)	> 100 µM (inactive)	> 100 µM (inactive)	> 100 µM (inactive)	> 100 µM (inactive)
COc1cc(/C=C2\C(=O)N(c3ccc(Cl)cc3)C(c3ccccc3)S2(=O)=O)cc(OC)c1OC (stereo unspecified)	38.5 µM (inactive)	8.53 µM (inactive)	26.8 µM (inactive)	–	0.726 µM (active)	4.55 µM (inactive)	4.61 µM (inactive)	> 69.3 µM (inactive)	2.04 µM (inactive)	14.5 µM (inactive)	12.4 µM (inactive)	8.89 µM (inactive)	9.04 µM (inactive)	22.8 µM (inactive)	7.46 µM (inactive)	57 µM (inactive)	> 54.3 µM (inactive)	14 µM (inactive)	21.4 µM (inactive)
CCOC(=O)c1oc2cc3c(c4c2c1-c1ccccc1N4C)C=CC(C)(C)O3	15.9 µM (inactive)	12.4 µM (inactive)	15.3 µM (inactive)	15.8 µM (inactive)	6.71 µM (inactive)	16.4 µM (inactive)	2.37 µM (inactive)	10.4 µM (inactive)	> 79.8 µM (inactive)	8.71 µM (inactive)	6.3 µM (inactive)	6.58 µM (inactive)	29.9 µM (inactive)	12.3 µM (inactive)	12.8 µM (inactive)	6.4 µM (inactive)	23.5 µM (inactive)	13.4 µM (inactive)	31.2 µM (inactive)
[N-]=[N+]=NC1C(O)C(CO)OC1n1ccc(=O)[nH]c1=O (stereo unspecified)	> 875 µM (inactive)	> 875 µM (inactive)	344 µM (inactive)	> 875 µM (inactive)	> 875 µM (inactive)	> 875 µM (inactive)	> 875 µM (inactive)	> 875 µM (inactive)	> 875 µM (inactive)	> 875 µM (inactive)	> 875 µM (inactive)	> 875 µM (inactive)	> 875 µM (inactive)	> 875 µM (inactive)	> 875 µM (inactive)	> 875 µM (inactive)	> 875 µM (inactive)	> 875 µM (inactive)	> 875 µM (inactive)
CC1(C)C(=O)C=CC2(C)C1CC(O)C1(C)C2CCC2(C)C(c3ccoc3)OC(=O)C3OC321 (stereo unspecified)	11.7 µM (inactive)	23.1 µM (inactive)	12.5 µM (inactive)	14.3 µM (inactive)	24.8 µM (inactive)	15.7 µM (inactive)	28.8 µM (inactive)	15.8 µM (inactive)	18.1 µM (inactive)	11.5 µM (inactive)	14.4 µM (inactive)	15 µM (inactive)	32.3 µM (inactive)	31.6 µM (inactive)	18.5 µM (inactive)	> 10 µM (inactive)	24.8 µM (inactive)	23.7 µM (inactive)	> 10 µM (inactive)
Cc1ccc(C)n1-c1ccccc1C1C=Cn2c3c1c(=O)c(OC(C)C)c(OC(C)C)c-3n[nH]c2=O (stereo unspecified)	31.8 µM (inactive)	13.3 µM (inactive)	28.4 µM (inactive)	30.1 µM (inactive)	12.2 µM (inactive)	25.9 µM (inactive)	22.2 µM (inactive)	33.6 µM (inactive)	37.6 µM (inactive)	17 µM (inactive)	32.6 µM (inactive)	38.9 µM (inactive)	> 100 µM (inactive)	10.3 µM (inactive)	8.3 µM (inactive)	58.3 µM (inactive)	17.5 µM (inactive)	> 100 µM (inactive)	32.6 µM (inactive)
Cc1cccc2nc3c(=O)[nH]c(=O)nc-3n(C)c12	> 100 µM (inactive)	28.6 µM (inactive)	> 100 µM (inactive)	> 100 µM (inactive)	46.6 µM (inactive)	54 µM (inactive)	34.5 µM (inactive)	> 100 µM (inactive)	62.1 µM (inactive)	29.2 µM (inactive)	82.2 µM (inactive)	45.5 µM (inactive)	> 100 µM (inactive)	66.7 µM (inactive)	29.7 µM (inactive)	41.1 µM (inactive)	> 100 µM (inactive)	> 100 µM (inactive)	34.4 µM (inactive)
CC12CCC([C@H](C(O)C3CCCCC3)C1=O)C2(C)C (stereo partly specified)	> 100 µM (inactive)	31.6 µM (inactive)	> 100 µM (inactive)	> 100 µM (inactive)	63 µM (inactive)	> 100 µM (inactive)	> 100 µM (inactive)	> 100 µM (inactive)	> 100 µM (inactive)	65.8 µM (inactive)	> 100 µM (inactive)	> 100 µM (inactive)	> 100 µM (inactive)	> 100 µM (inactive)	49.4 µM (inactive)	> 100 µM (inactive)	–	> 100 µM (inactive)	> 100 µM (inactive)
c1cc(-c2ccc(-c3ccc(C4=NC5CCCCC5N4)cc3)o2)ccc1C1=NC2CCCCC2N1 (stereo unspecified)	5.92 µM (inactive)	1.79 µM (inactive)	1.69 µM (inactive)	–	1.42 µM (inactive)	1.56 µM (inactive)	1.21 µM (inactive)	1.5 µM (inactive)	1.67 µM (inactive)	1.61 µM (inactive)	28.4 µM (inactive)	1.56 µM (inactive)	2.09 µM (inactive)	1.46 µM (inactive)	1.76 µM (inactive)	1.73 µM (inactive)	1.83 µM (inactive)	1.64 µM (inactive)	1.75 µM (inactive)
CC1(C)CCC2=C(O1)/C(=N\Nc1ccccc1)c1ccccc1C2=O	24 µM (inactive)	56.1 µM (inactive)	20.9 µM (inactive)	34.6 µM (inactive)	39.9 µM (inactive)	22 µM (inactive)	18.9 µM (inactive)	25.4 µM (inactive)	16.1 µM (inactive)	29.4 µM (inactive)	31.1 µM (inactive)	31.2 µM (inactive)	31.3 µM (inactive)	24.1 µM (inactive)	31.4 µM (inactive)	26.5 µM (inactive)	59.6 µM (inactive)	24.9 µM (inactive)	18.7 µM (inactive)
COc1ccc2nc3cc(Cl)ccc3c(NCCNCCCNC(=O)c3cc(-c4ccccc4)nc4ccccc34)c2c1	> 100 µM (inactive)	> 100 µM (inactive)	> 100 µM (inactive)	> 100 µM (inactive)	70.8 µM (inactive)	82.6 µM (inactive)	> 100 µM (inactive)	> 100 µM (inactive)	28.6 µM (inactive)	> 100 µM (inactive)	> 100 µM (inactive)	> 100 µM (inactive)	> 100 µM (inactive)	56.6 µM (inactive)	> 100 µM (inactive)	> 100 µM (inactive)	> 100 µM (inactive)	> 100 µM (inactive)	> 100 µM (inactive)
COc1ccc2c(c1)CCC(CN1CCN(CCOC(c3ccc(F)cc3)c3ccc(F)cc3)CC1)C2O (stereo unspecified)	15.8 µM (inactive)	14.9 µM (inactive)	11.6 µM (inactive)	13.8 µM (inactive)	4.51 µM (inactive)	15.3 µM (inactive)	19.3 µM (inactive)	13.6 µM (inactive)	15.6 µM (inactive)	14.8 µM (inactive)	12.5 µM (inactive)	14.2 µM (inactive)	15.2 µM (inactive)	11.7 µM (inactive)	6.75 µM (inactive)	30.3 µM (inactive)	14.6 µM (inactive)	15.5 µM (inactive)	12.9 µM (inactive)
COCCC(NC(=O)C(CC(C)C)NC(=O)OC(C)(C)C)C(N)=O (stereo not drawn) (Boc-Leu-[hSer](Me)-NH2; configuration not given here)	> 100 µM (inactive)	> 100 µM (inactive)	> 100 µM (inactive)	> 100 µM (inactive)	> 100 µM (inactive)	> 100 µM (inactive)	> 100 µM (inactive)	> 100 µM (inactive)	> 100 µM (inactive)	> 100 µM (inactive)	> 100 µM (inactive)	> 100 µM (inactive)	–	> 100 µM (inactive)	> 100 µM (inactive)	> 100 µM (inactive)	> 100 µM (inactive)	> 100 µM (inactive)	> 100 µM (inactive)
